According to ChEMBL document CHEMBL3856224, “Novel series of tacrine-tianeptine hybrids: Synthesis, cholinesterase inhibitory activity, S100B secretion and a molecular modeling approach” (Eur J Med Chem, 2016):
The source made the active and inactive calls. The calls are words filed in the database; no cut-off is given here.

Columns and labels:
Acetylcholinesterase = molecular target: T1, Acetylcholinesterase (Rattus norvegicus, UniProt P37136); set-up: species or system Wistar
T1 sequence (P37136 whole entry): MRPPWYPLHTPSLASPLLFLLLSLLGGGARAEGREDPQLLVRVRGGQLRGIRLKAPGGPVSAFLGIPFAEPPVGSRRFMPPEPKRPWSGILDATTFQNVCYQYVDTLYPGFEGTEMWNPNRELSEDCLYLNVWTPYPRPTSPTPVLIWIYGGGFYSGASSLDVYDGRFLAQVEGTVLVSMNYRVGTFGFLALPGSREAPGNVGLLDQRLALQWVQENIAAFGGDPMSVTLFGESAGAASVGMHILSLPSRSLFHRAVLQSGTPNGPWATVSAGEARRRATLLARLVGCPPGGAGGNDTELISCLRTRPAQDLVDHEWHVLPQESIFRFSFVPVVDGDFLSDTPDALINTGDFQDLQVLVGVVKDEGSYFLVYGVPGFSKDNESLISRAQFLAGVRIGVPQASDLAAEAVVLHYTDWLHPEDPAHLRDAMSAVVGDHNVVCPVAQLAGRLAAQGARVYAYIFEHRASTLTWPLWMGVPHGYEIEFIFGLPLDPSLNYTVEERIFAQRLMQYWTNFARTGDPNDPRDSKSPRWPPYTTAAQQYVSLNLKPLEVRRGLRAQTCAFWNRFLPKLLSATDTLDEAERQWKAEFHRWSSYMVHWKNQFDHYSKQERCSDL
Description: Inhibition of Wistar rat brain AChE using acetylthiochloline iodide as substrate after 30 mins by Ellman's method

Cholinesterase = Cholinesterase (Homo sapiens, UniProt P06276)
Cholinesterase, sequence (P06276 whole entry): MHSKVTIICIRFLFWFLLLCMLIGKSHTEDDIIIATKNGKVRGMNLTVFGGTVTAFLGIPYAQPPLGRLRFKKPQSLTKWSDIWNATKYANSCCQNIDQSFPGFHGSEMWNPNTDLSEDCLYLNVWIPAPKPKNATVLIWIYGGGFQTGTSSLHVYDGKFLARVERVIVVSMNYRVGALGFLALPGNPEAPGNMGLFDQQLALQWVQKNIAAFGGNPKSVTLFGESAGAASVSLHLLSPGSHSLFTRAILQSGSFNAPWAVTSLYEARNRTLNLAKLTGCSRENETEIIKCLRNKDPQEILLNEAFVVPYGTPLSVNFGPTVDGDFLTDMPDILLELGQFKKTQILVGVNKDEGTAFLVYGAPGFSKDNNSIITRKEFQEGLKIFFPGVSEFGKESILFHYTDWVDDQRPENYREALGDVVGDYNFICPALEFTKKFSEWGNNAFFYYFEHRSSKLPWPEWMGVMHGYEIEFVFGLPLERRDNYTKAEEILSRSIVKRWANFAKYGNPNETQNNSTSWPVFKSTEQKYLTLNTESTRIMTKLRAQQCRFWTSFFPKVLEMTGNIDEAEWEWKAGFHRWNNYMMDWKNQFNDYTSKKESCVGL
Description: Inhibition of human plasma BuChE using S-butyrylthiocholine iodide as substrate after 30 mins by Ellman's method

Hippocampus = assay: Reduction of S100B secretion in Wistar rat hippocampus at 0.03 to 0.3 uM after 1 hr by ELISA; assay type: functional
Rattus norvegicus [1] = organism: Rattus norvegicus; assay: Toxicity in Wistar rat hippocampus assessed as LDH release at 0.1 uM relative to control; assay type: organism-based; settings: in vivo
Rattus norvegicus [2] = organism: Rattus norvegicus; assay: Toxicity in Wistar rat hippocampus assessed as LDH release at 0.03 uM relative to control; assay type: organism-based; settings: in vivo
Rattus norvegicus [3] = organism: Rattus norvegicus; assay: Toxicity in Wistar rat hippocampus assessed as LDH release at 0.3 uM relative to control; assay type: organism-based; settings: in vivo

| SMILES | IC50 (Acetylcholinesterase) [nM] | IC50 (Cholinesterase) [nM] | Activity (Hippocampus) | Activity (Rattus norvegicus [1]) [%] | Activity (Rattus norvegicus [2]) [%] | Activity (Rattus norvegicus [3]) [%] |
| --- | --- | --- | --- | --- | --- | --- |
| CN1c2ccccc2C(NCCCCCCC(=O)NCCNc2c3c(nc4cc(Cl)ccc24)CCCC3)c2ccc(Cl)cc2S1(=O)=O (stereo unspecified) | 8.01 | 47.3 | – | – | – | – |
| CN1c2ccccc2C(NCCCCCCC(=O)NCCNc2c3c(nc4ccccc24)CCCC3)c2ccc(Cl)cc2S1(=O)=O (stereo unspecified) | 82.2 | 22.6 | – | – | – | – |
| CN1c2ccccc2C(NCCCCCCC(=O)NCCCCNc2c3c(nc4ccccc24)CCCC3)c2ccc(Cl)cc2S1(=O)=O (stereo unspecified) | 156 | 3.59 | Active | 74.9 | 72.7 | – |
| CN1c2ccccc2C(NCCCCCCC(=O)NCCCCCCCNc2c3c(nc4ccccc24)CCCC3)c2ccc(Cl)cc2S1(=O)=O (stereo unspecified) | 65 | 6.4 | – | – | – | – |
| CN1c2ccccc2C(NCCCCCCC(=O)NCCCCCNc2c3c(nc4ccccc24)CCCC3)c2ccc(Cl)cc2S1(=O)=O (stereo unspecified) | 108 | 6.97 | Active | – | 67.4 | – |
| CN1c2ccccc2C(NCCCCCCC(=O)NCCCCCNc2c3c(nc4cc(Cl)ccc24)CCCC3)c2ccc(Cl)cc2S1(=O)=O (stereo unspecified) | 28.3 | 30.4 | – | – | – | – |
| CN1c2ccccc2C(NCCCCCCC(=O)O)c2ccc(Cl)cc2S1(=O)=O (stereo unspecified) [TIANEPTINE] | – | – | – | 109.7 | – | 110.8 |
| CN1c2ccccc2C(NCCCCCCC(=O)NCCCCCCCNc2c3c(nc4cc(Cl)ccc24)CCCC3)c2ccc(Cl)cc2S1(=O)=O (stereo unspecified) | 132 | 53.8 | – | – | – | – |
| CN1c2ccccc2C(NCCCCCCC(=O)NCCCCCCNc2c3c(nc4cc(Cl)ccc24)CCCC3)c2ccc(Cl)cc2S1(=O)=O (stereo unspecified) | 39.1 | 32.1 | – | – | – | – |
| c1ccc2c(NCCCCCCCNc3c4c(nc5ccccc35)CCCC4)c3c(nc2c1)CCCC3 | – | 38.3 | – | – | – | – |
| CN1c2ccccc2C(NCCCCCCC(=O)NCCCNc2c3c(nc4cc(Cl)ccc24)CCCC3)c2ccc(Cl)cc2S1(=O)=O (stereo unspecified) | 6.79 | 52.4 | – | – | – | – |
| CN1c2ccccc2C(NCCCCCCC(=O)NCCCCCCNc2c3c(nc4ccccc24)CCCC3)c2ccc(Cl)cc2S1(=O)=O (stereo unspecified) | 116 | 3.79 | – | – | – | – |
| CN1c2ccccc2C(NCCCCCCC(=O)NCCCCCCCCNc2c3c(nc4cc(Cl)ccc24)CCCC3)c2ccc(Cl)cc2S1(=O)=O (stereo unspecified) | 452 | 456 | – | – | – | – |
| CN1c2ccccc2C(NCCCCCCC(=O)NCCCNc2c3c(nc4ccccc24)CCCC3)c2ccc(Cl)cc2S1(=O)=O (stereo unspecified) | 52.2 | 11.6 | – | – | – | – |
| CN1c2ccccc2C(NCCCCCCC(=O)NCCCCCCCCNc2c3c(nc4ccccc24)CCCC3)c2ccc(Cl)cc2S1(=O)=O (stereo unspecified) | 87.5 | 4.12 | – | – | – | – |
| CN1c2ccccc2C(NCCCCCCC(=O)NCCCCNc2c3c(nc4cc(Cl)ccc24)CCCC3)c2ccc(Cl)cc2S1(=O)=O (stereo unspecified) | 36.5 | 48.1 | – | – | – | – |
